Measurements as given in US20230321043A1, “COMPOUNDS HAVING PSEUDOMONAS ANTI-BIOFILM PROPERTIES” (Københavns Universitet, priority 2020, published 2023).

Key:
[1] = test system: P. aeruginosa biofilm on urinary tract catheters; assay: catheter associated urinary tract infection model in mice; format: in vivo
Procedure: Silicone catheters (5 mm long, 0.64 mm OD×0.3 mm ID) incubated with P. aeruginosa cultures (OD 1) for 22 hours to allow bacterial adhesion and subsequent coating. Mice then had the catheters inserted in the bladder and biofilm developed on the catheters for 24 hours. […] At 48 hours post-insertion the mice were euthanized, and the bacterial contents as CFU per implant were determined. Two experiments were pooled, and the median CFU per implant for the placebo group was set to 100. Horizontal lines indicate median CFU for each group. Each symbol represents a mouse. IP administered doses: H6 P1: 2×13 mg/Kg BW, CIP: 2×1 mg/Kg BW.
Silicone catheters (5 mm long, 0.64 mm OD×0.3 mm ID) incubated with P. aeruginosa cultures (OD 1) for 22 hours to allow bacterial adhesion and subsequent coating. Mice then had the catheters inserted in the bladder and biofilm developed on the catheters for 24 hours. […] At 48 hours post-insertion the mice were euthanized, and the bacterial contents as CFU per implant were determined. The median CFU per catheter for the control groups were set to 100. The median CFU per catheter for the placebo groups were 3×10^5 and 7×10^4. Horizontal lines indicate median CFU for each group. Each symbol represents one mouse. Orally administered doses: 2×13 mg/Kg BW, 2×3.3 mg/Kg BW. […]

wt P. aeruginosa biofilm = assay: time dependent liberation of bacteria from biofilm (CFU); format: cell-based, Pseudomonas aeruginosa; settings: 25 μM, 18 hours old biofilm, FIG. 4C
Procedure: In a further experiment (FIG. 4C) the time dependent liberation of wt P. aeruginosa bacteria during H6-335-P1 induced dispersal performed in 48 well trays microtiter trays was determined. After 18 hours of growth in ABtrace media aliquots supplemented with 0.5% glucose, 0.5% Cas amino acids and 1 μM FeCl3 on a rotary shaker, 25 μM H6-335-P1 or 1% DMSO control was added. At the time-points indicated, samples were withdrawn and plated for CFU determinations. Average CFU's per ml for the 1% DMSO controls at each time point are set to 100.

N=C1NN=C(N)/C1=N/Nc1ccccc1F [H6-335-P1, 4-[(2-fluorophenyl) hydrazinylidene]pyrazole-3,5-diamine]
number of bacteria on the catheters, intraperitoneal administration ([1]; given as H6-335-P1:HCl 2×13 mg/Kg BW IP, with or without ciprofloxacin, FIG. 10A): reduced the number of bacteria on the catheters | biofilm mass on the catheters, oral administration ([1]; given as H6-335-P1:HCl in Nutella, as low as […] (3.3 mg/Kg BW), FIG. 10B): significantly reduces the biofilm mass on the catheters | dispersal of live bacteria from already formed biofilms (wt P. aeruginosa biofilm): induced dispersal of live bacteria into the growth medium
